target: T1, recombinant human liver glycogen phosphorylase (HLGPa) (Homo sapiens, UniProt P06737); test: Measurement of liver glycogen phosphorylase activity (enzyme inhibitory activity against HLGPa); format: biochemical; conditions: Sf9 cell lysate expressing recombinant enzyme; reverse reaction (glycogen synthesis from G1-P), phosphate by malachite green, 60 min room temperature
T1 construct: made in house; host or cells: Sf9 insect cells (unpurified cell lysate used as enzyme solution)
T1 sequence (P06737 1-847): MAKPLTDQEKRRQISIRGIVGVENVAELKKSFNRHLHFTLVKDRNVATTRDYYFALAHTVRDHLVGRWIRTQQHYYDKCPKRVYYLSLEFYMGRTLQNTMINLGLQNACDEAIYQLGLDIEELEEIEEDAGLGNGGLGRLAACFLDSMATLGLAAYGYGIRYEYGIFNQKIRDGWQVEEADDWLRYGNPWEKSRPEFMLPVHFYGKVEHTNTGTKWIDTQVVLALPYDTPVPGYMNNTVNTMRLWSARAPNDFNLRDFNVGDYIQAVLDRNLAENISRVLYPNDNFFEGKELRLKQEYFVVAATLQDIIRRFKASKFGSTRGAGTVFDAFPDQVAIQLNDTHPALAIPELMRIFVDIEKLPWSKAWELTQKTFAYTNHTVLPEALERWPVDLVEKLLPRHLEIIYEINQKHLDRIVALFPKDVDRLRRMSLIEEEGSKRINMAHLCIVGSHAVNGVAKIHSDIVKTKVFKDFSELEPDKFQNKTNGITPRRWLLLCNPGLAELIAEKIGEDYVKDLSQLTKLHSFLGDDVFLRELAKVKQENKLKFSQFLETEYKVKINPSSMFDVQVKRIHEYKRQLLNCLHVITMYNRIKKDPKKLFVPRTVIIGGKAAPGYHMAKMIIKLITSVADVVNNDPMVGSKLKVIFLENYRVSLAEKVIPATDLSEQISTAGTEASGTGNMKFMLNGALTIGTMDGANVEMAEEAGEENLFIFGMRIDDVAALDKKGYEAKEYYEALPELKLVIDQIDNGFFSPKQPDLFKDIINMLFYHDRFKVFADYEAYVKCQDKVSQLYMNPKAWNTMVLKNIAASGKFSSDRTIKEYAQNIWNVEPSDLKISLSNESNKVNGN
Method: Measurement Method of Liver Glycogen Phosphorylase Activity
The measurement of the glycogen phosphorylase activity was performed by measuring the concentration of phosphoric acic produced by a reverse reaction, that is, a reaction wherein the glycogen phosphorylase synthesizes glycogen from G1-P. A cell lysate of Sf9 cells that forcibly expressed recombinant human liver glycogen phosphorylase was diluted to a protein amount of 80 μg/mL with 1 mM imidazole-hydrochloric acid buffer (pH 7.0, containing 0.2 mM PMSF, 250 mM NaCl, 0.025% BSA) and the dilute cell lysate was used as an enzyme solution of human liver glycogen phosphorylase. As a substrate solution, 25 mM Tris-HCl buffer (pH 7.2, containing 250 mM KCl, 6.25 mM MgCl2, 6.25 mM EGTA, 1.25 mM glucose-1-phosphate, 2.5 mg/ml glycogen, 7.5 mM glucose) was used. The test drug was dissolved in 0.5% dimethyl sulfoxide (DMSO). To a mixture of the test drug (10 μl) and the substrate solution (20 μl) was added an enzyme solution (20 μl) to start the enzyme reaction. As a control, 0.5% DMSO was added instead of the test drug. One free of addition of enzyme was used as a blank. The mixture was reacted at room temperature for 60 min, and a malachite green solution (50 μl) was added. The mixture was further reacted at room temperature for 20 min and absorbance at 650 nm was measured. An enzyme solution was added to the blank simultaneously with the malachite green solution and the measurement was done in the same manner. The percent inhibition (%) of the test drug was calculated from ((value of control−value of the test drug)/(value of control−value of blank))×100 (%).

| SMILES | IC50 [nM] |
| --- | --- |
| CN(C)c1ccccc1C(=O)NNC(=O)c1cc2cc(Cl)ccc2[nH]1 [Example 1-51, 2-(dimethylamino)benzoic acid 2-(5-chloro-1H-indole-2-carbonyl)hydrazide] | 89 |
| CN(C)C(=O)COc1ccccc1C(=O)NNC(=O)c1cc2cc(Cl)ccc2[nH]1 [Example 1-52, 2-(2-(5-chloro-1H-indole-2-carbonyl)hydrazinocarbonyl)phenoxy-N,N-dimethylacetamide] | 91 |
| CNc1ccccc1C(=O)NNC(=O)c1cc2cc(Cl)ccc2[nH]1 [Example 1-53, 2-methylaminobenzoic acid 2-(5-chloro-1H-indole-2-carbonyl)hydrazide] | 230 |
| Nc1cc(Cl)ccc1C(=O)NNC(=O)c1cc2cc(Cl)ccc2[nH]1 [Example 1-54, 2-amino-4-chlorobenzoic acid 2-(5-chloro-1H-indole-2-carbonyl)hydrazide] | 30 |
| Nc1cccc(Cl)c1C(=O)NNC(=O)c1cc2cc(Cl)ccc2[nH]1 [Example 1-55, 2-amino-6-chlorobenzoic acid 2-(5-chloro-1H-indole-2-carbonyl)hydrazide] | 87 |
| Nc1ccc(Cl)cc1C(=O)NNC(=O)c1cc2cc(Cl)ccc2[nH]1 [Example 1-57, 2-amino-5-chlorobenzoic acid 2-(5-chloro-1H-indole-2-carbonyl)hydrazide] | 30 |
| N#Cc1ccc(C(=O)NNC(=O)c2cc3cc(Cl)ccc3[nH]2)cc1 [Example 1-58, 4-cyanobenzoic acid 2-(5-chloro-1H-indole-2-carbonyl)hydrazide] | > 100 |
| O=C(NNC(=O)c1cc2cc(Cl)ccc2[nH]1)c1ccc(-c2nnn[nH]2)cc1 [Example 1-59, 4-(1H-tetrazol-5-yl)benzoic acid 2-(5-chloro-1H-indole-2-carbonyl)hydrazide] | > 100 |
| O=C(NNC(=O)c1cc2cc(Cl)ccc2[nH]1)c1cccc(-c2nnn[nH]2)c1 [Example 1-60, 3-(1H-tetrazol-5-yl)benzoic acid 2-(5-chloro-1H-indole-2-carbonyl)hydrazide] | > 100 |
| O=C(O)CNc1ccccc1C(=O)NNC(=O)c1cc2cc(Cl)ccc2[nH]1 [Example 1-61, 2-(2-(2-(5-chloro-1H-indole-2-carbonyl)hydrazinocarbonyl)anilino)acetic acid] | 49 |
| Cc1ccc2[nH]c(C(=O)NNC(=O)c3ccccc3N)cc2c1 [Example 1-62, 2-aminobenzoic acid 2-(5-methyl-1H-indole-2-carbonyl)hydrazide] | 88 |
| Cc1ccc2[nH]c(C(=O)NNC(=O)c3ccc(F)cc3N)cc2c1 [Example 1-63, 2-amino-4-fluorobenzoic acid 2-(5-methyl-1H-indole-2-carbonyl)hydrazide] | 28 |
| COC(=O)Nc1ccccc1C(=O)NNC(=O)c1cc2cc(C)ccc2[nH]1 [Example 1-64, methyl (2-(2-(5-methyl-1H-indole-2-carbonyl)hydrazinocarbonyl)phenyl)carbamate] | > 100 |
| CN(C)C(=O)Oc1ccccc1C(=O)NNC(=O)c1cc2cc(Cl)ccc2[nH]1 [Example 1-65, 2-(2-(5-chloro-1H-indole-2-carbonyl)hydrazinocarbonyl)phenyl dimethylcarbamate] | > 100 |
| CCc1ccc2[nH]c(C(=O)NNC(=O)c3ccccc3N)cc2c1 [Example 1-66, 2-aminobenzoic acid 2-(5-ethyl-1H-indole-2-carbonyl)hydrazide] | > 100 |
| Cc1ccc2[nH]c(C(=O)NNC(=O)c3cc(F)c(F)cc3N)cc2c1 [Example 1-67, 2-Amino-4,5-difluorobenzoic acid 2-(5-methyl-1H-indole-2-carbonyl)hydrazide] | 54 |
| O=C(NNC(=O)c1ccccc1OCCO)c1cc2cc(Cl)ccc2[nH]1 [Example 1-68, 2-(2-hydroxyethoxy)benzoic acid 2-(5-chloro-1H-indole-2-carbonyl)hydrazide] | 160 |

| SMILES | IC50 [nM] |
| --- | --- |
| COC(=O)COc1cccc(C(=O)NNC(=O)c2cc3cc(Cl)ccc3[nH]2)c1 [Example 1-69, 2-(3-(2-(5-chloro-1H-indole-2-carbonyl)hydrazinocarbonyl)phenoxy)acetic acid methyl ester] | 150 |
| O=C(O)COc1cccc(C(=O)NNC(=O)c2cc3cc(Cl)ccc3[nH]2)c1 [Example 1-70, 2-(3-(2-(5-chloro-1H-indole-2-carbonyl)hydrazinocarbonyl)phenoxy)acetic acid] | 150 |
| CN(C)C(=O)COc1cccc(C(=O)NNC(=O)c2cc3cc(Cl)ccc3[nH]2)c1 [Example 1-71, 2-(3-(2-(5-chloro-1H-indole-2-carbonyl)hydrazinocarbonyl)phenoxy)-N,N-dimethylacetamide] | 62 |
| Cc1nc(C(=O)NNC(=O)c2cc3cc(Cl)ccc3[nH]2)cs1 [Example 1-72, 2-methylthiazole-4-carboxylic acid 2-(5-chloro-1H-indole-2-carbonyl)hydrazide] | > 100 |
| O=C(NNC(=O)c1cc2cc(Cl)ccc2[nH]1)c1ccc(-c2ncn[nH]2)cc1 [Example 1-73, 4-(2H-[1,2,4]triazol-3-yl)benzoic acid 2-(5-chloro-1H-indole-2-carbonyl)hydrazide] | 76 |
| O=C(Nc1ccccc1C(=O)NNC(=O)c1cc2cc(Cl)ccc2[nH]1)OC(CO)CO [Example 1-75, 1,3-dihydroxy-2-propyl (2-(2-(5-chloro-1H-indole-2-carbonyl)hydrazinocarbonyl)phenyl)carbamate] | 250 |
| CC(C)(COC(=O)Nc1ccccc1C(=O)NNC(=O)c1cc2cc(Cl)ccc2[nH]1)C(=O)O [Example 1-76, 3-((2-(2-(5-chloro-1H-indole-2-carbonyl)hydrazinocarbonyl)phenyl)carbamoyloxy)-2,2-dimethylpropionic acid] | 37 |
| O=C(NNC(=O)c1ccco1)c1cc2cc(Cl)ccc2[nH]1 [Example 1-78, furan-2-carboxylic acid 2-(5-chloro-1H-indole-2-carbonyl)hydrazide] | 18 |
| O=C(NNC(=O)c1ccc(Cl)nc1Cl)c1cc2cc(Cl)ccc2[nH]1 [Example 1-79, 2,6-dichloronicotinic acid 2-(5-chloro-1H-indole-2-carbonyl)hydrazide] | 83 |
| O=C(NNC(=O)c1cc2cc(Cl)ccc2[nH]1)c1ccc[nH]1 [Example 1-80, 1H-pyrrole-2-carboxylic acid 2-(5-chloro-1H-indole-2-carbonyl)hydrazide] | 400 |
| O=C(NNC(=O)c1cc2cc(Cl)ccc2[nH]1)c1cnccn1 [Example 1-82, pyrazine-2-carboxylic acid 2-(5-chloro-1H-indole-2-carbonyl)hydrazide] | 360 |
| O=C(NNC(=O)c1cc2cc(Cl)ccc2[nH]1)c1ccsc1 [Example 1-83, thiophene-3-carboxylic acid 2-(5-chloro-1H-indole-2-carbonyl)hydrazide] | 880 |
| O=C(NNC(=O)c1cc2cc(Cl)ccc2[nH]1)c1ccoc1 [Example 1-84, furan-3-carboxylic acid 2-(5-chloro-1H-indole-2-carbonyl)hydrazide] | 20 |
| O=C(NNC(=O)c1ccc(Cl)s1)c1cc2cc(Cl)ccc2[nH]1 [Example 1-85, 5-chlorothiophene-2-carboxylic acid 2-(5-chloro-1H-indole-2-carbonyl)hydrazide] | 430 |
| O=C(NNC(=O)c1sccc1Cl)c1cc2cc(Cl)ccc2[nH]1 [Example 1-86, 3-chlorothiophene-2-carboxylic acid 2-(5-chloro-1H-indole-2-carbonyl)hydrazide] | 28 |
| Cn1cccc1C(=O)NNC(=O)c1cc2cc(Cl)ccc2[nH]1 [Example 1-87, 1-methyl-1H-pyrrole-2-carboxylic acid 2-(5-chloro-1H-indole-2-carbonyl)hydrazide] | 56 |

From patent US20050054696A1, “Indole compounds and medicinal use thereof” (priority 2001, published 2005)
